According to BindingDB's records for doi:10.1021/jm0497242 (Leadscope, 2004):

Each compound was assayed against T1, Tyrosine-protein phosphatase non-receptor type 1 (Homo sapiens, UniProt P18031) (assay: Concentration required for 50% inhibition of tyrosine phosphatase 1B).
T1 sequence (P18031 whole entry): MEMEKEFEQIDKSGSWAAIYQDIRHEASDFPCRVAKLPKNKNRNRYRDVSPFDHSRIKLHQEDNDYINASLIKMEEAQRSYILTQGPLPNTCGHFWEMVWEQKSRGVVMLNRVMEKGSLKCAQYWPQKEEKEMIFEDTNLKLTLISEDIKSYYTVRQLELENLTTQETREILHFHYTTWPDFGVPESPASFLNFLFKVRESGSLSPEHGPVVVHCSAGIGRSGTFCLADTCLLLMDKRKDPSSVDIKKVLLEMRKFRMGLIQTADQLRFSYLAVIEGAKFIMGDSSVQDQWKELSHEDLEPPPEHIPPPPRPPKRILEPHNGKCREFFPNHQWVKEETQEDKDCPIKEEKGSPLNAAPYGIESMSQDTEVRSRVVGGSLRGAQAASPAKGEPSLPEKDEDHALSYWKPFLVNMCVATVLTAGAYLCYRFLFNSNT

| IC50 | SMILES |
| --- | --- |
| 27.5 nM | O=C(O)c1cc(S(=O)(=O)Oc2ccc(-c3ccc(-c4c(Cc5ccccc5)oc5ccccc45)cc3)cc2)ccc1O [5-[4''-(2-Benzyl-benzofuran-3-yl)-biphenyl-4-yloxysulfonyl]-2-hydroxy-benzoic acid] |
| 83.1 nM | O=C(O)CNc1cc(-c2ccc(-c3c(Cc4ccccc4)oc4ccccc34)cc2)ccc1OCCc1ccccc1 [[4'-(2-Benzyl-benzofuran-3-yl)-4-phenethyloxy-biphenyl-3-ylamino]-acetic acid] |
| 58.8 nM | O=C(O)[C@@H](Cc1ccccc1)Oc1ccc(-c2ccc(-c3c(Cc4ccccc4)sc4ccccc34)cc2)cc1Br |
